# Residues, ends and D or L forms follow the SMILES beside them. *: point of attachment. Hexanoyl = CCCCCC(=O)*
# Test system: human liver microsomes, metabolic stability half-life
# Test: NCATS Human Liver Microsomal (HLM) Stability Profiling
# Conditions: higher = more stable; screened at 1 µM (by protocol)
# In short: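 Half-life derived from parent loss over 0–60 min (0, 5, 10, 15, 30, 60 min) at 37 °C. Incubations: 0.5 mg/mL microsomes, 1 µM test article, NADPH regeneration, pH 7.4 phosphate; quenched in acetonitrile containing albendazole, analysed by MS.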
row,SMILES,half-life [min]
1,CCc1noc(-c2ccc(NCc3ccccc3)c([N+](=O)[O-])c2)n1,4.39
2,Nc1ncnc2c1ncn2[C@@H]1O[C@H](CO)[C@@H](O)[C@@H]1O,> 120
3,COc1ccc(CCNc2ncnc3c2c(-c2ccccc2)cn3-c2cccc(Cl)c2)cc1OC,3.59
4,O=C(Nc1cccnc1)N1CCC(Cc2cccc(Oc3ccc(C(F)(F)F)cn3)c2)CC1,33.9
5,Cc1ccccc1-n1c([C@H](C)Nc2nc(N)nc3nc[nH]c23)nc2cccc(C)c2c1=O,103
6,N#Cc1ccc(C(=O)Nc2ccc(Cl)c(-c3nc4cc(Cl)ccc4o3)c2)c(F)c1,15.4
7,Clc1ccc(CO/N=C(\Cn2ccnc2)c2ccc(Cl)cc2Cl)c(Cl)c1,55.1
8,COc1cc(C(=O)NCC2(N(C)C)CCCC2)cc(OC)c1OCc1ccccc1,38.3
9,CN1CCN(C2CCC(n3cc(-c4ccc(Oc5ccccc5)cc4)c4c(N)ncnc43)CC2)CC1 (stereo not drawn),58.6
10,CCN[C@H]1C[C@H](C)S(=O)(=O)C2SC(S(N)(=O)=O)C=C21 (stereo partly drawn),105
11,COc1ccc(Oc2c(Cl)cnn(-c3cc(C)cc(C)c3)c2=O)cc1,17.4
12,CN1CCN(C(=O)c2ccc3nccn3c2)CC1,> 120
13,Cc1cc2c(F)c(Oc3ncnn4cc(OCC(C)OC(=O)C(C)N)c(C)c34)ccc2[nH]1 (stereo not drawn),1.26
14,CN(C)[S+](=O)([O-])c1ccc([S+](=O)([O-])N(Cc2ccccc2)Cc2ccccn2)cc1,4.28
15,CCN1CCCC1CNC(=O)C(O)(c1ccccc1)c1ccccc1 (stereo not drawn),> 120
16,CN(C)S(=O)(=O)c1ccc(S(=O)(=O)N(Cc2ccccc2Cl)C[C@@H]2CCCO2)cc1,1.28
17,CCC(=O)NS(=O)(=O)c1ccc(-c2c(-c3ccccc3)noc2C)cc1,48.5
18,NC(=Nc1ccccc1)Nc1ccccc1,> 120
19,CCOC(=O)C1=Cc2ccc(C(F)(F)C(F)(F)F)cc2N=C(N)C1,9.93
20,Cc1cccc(N2CCN(C(=O)c3cn(C4CCCCC4)c(=O)c4c3c3ccccc3n4C)CC2)c1C,0.76
21,O=C(CSc1nnc(-c2cccc(F)c2)c(-c2cccc(F)c2)n1)NC1CCCCC1,10.8
22,Oc1cccc(C2NC(=S)Nc3cccc(F)c32)c1 (stereo not drawn),> 120
23,CCCCCC(=O)N1CCC[C@H]1C(=O)N[C@@H](Cc1ccc(O)cc1)C(=O)OC (Hexanoyl-Pro-Tyr-OMe),7.74

# Reference: PubChem BioAssay AID1963597 (National Center for Advancing Translational Sciences (NCATS), 2024)
